1 compound from ChEMBL document CHEMBL5506050, “Discovery of Oral AMP-Activated Protein Kinase Activators for Treating Hyperlipidemia” (J Med Chem, 2024) can be followed below.

The source made the active and inactive calls. The calls are words filed in the database; no cut-off is given here.

For data set [1], the system named is Syrian golden hamster. Kind of data set: Lipid lowering effect on high-fat diet-fed golden hamster assessed as decrease in serum LDL-C level at 100 mg/kg, po qd administered via gavage measured after 4 weeks relative to control. Format: functional, Mesocricetus auratus. On the set-up: scale not given: the % may be the effect or the level left.
Data set [2] relates to Syrian golden hamster. Kind of data set: Lipid lowering effect on high-fat diet-fed golden hamster assessed as decrease in serum LDL-C level at 200 mg/kg, po qd administered via gavage measured after 4 weeks relative to control. Format: functional, Mesocricetus auratus. On the set-up: scale not given: the % may be the effect or the level left.
Data set [3] concerns Syrian golden hamster. The data set is described as follows: Lipid lowering effect on high-fat diet-fed golden hamster assessed as decrease in ALT level in liver at 50 to 200 mg/kg, po qd administered via gavage measured after 4 weeks. Conditions: Mesocricetus auratus, dose 50-200 mg/kg. Format: functional, organism-based.
The subject of data set [4] is Syrian golden hamster. Kind of data set: Effect on adipose tissue weight in high-fat diet-fed golden hamster at 50 to 200 mg/kg, po qd administered via gavage measured after 4 weeks. The format is functional, organism-based. Conditions: Mesocricetus auratus, dose 50-200 mg/kg.
Data set [5] concerns Rhesus monkey. Kind of data set: Lipid lowering effect in Rhesus monkey assessed as decrease in serum LDL-C level at 35 mg/kg, NG qd treated for 35 days followed by drug washout for 14 days relative to control. The format is functional, Macaca mulatta. Details: scale not given: the % may be the effect or the level left. Conditions: time 35 day.
Data set [6] deals with Rhesus monkey. Kind of data set: Lipid lowering effect in Rhesus monkey assessed as decrease in serum LDL-C level at 35 mg/kg, NG qd measured after 21 days relative to control. Format: functional, Macaca mulatta. On the set-up: scale not given: the % may be the effect or the level left. Conditions: time 21 day.
The test system of data set [7] is Rhesus monkey. Kind of data set: Lipid lowering effect in Rhesus monkey assessed as decrease in blood LDL-C level at 35 mg/kg, NG qd treated for 35 days followed by drug washout for 14 days relative to control. The format is functional, Macaca mulatta. On the set-up: scale not given: the % may be the effect or the level left. Conditions: time 35 day.
Data set [8] relates to Erythrocyte. Kind of data set: In vivo induction of AMPK phosphorylation in erythrocytes of human at 2000 mg measured after 5 to 12 hrs by ELISA. Format: functional, organism-based. Conditions: time 5-12 hrs.
Data set [9] has as its system Mus musculus. Kind of data set: Downregulation of Aacas mRNA level in liver of high-fat diet-fed C57BL/6 mouse model at 200 mg/kg, po for 4 weeks by GO analysis. Format: functional, organism-based.
For data set [10], the system named is Mus musculus. Kind of data set: Downregulation of Syvn1 mRNA level in liver of high-fat diet-fed C57BL/6 mouse model at 200 mg/kg, po for 4 weeks by GO analysis. Format: functional, organism-based.
Data set [11] relates to Mus musculus. Kind of data set: Downregulation of Ctgf mRNA level in liver of high-fat diet-fed C57BL/6 mouse model at 200 mg/kg, po for 4 weeks by GO analysis. The format is functional, organism-based.
For data set [12], the system named is Mus musculus. The data set is described as follows: Effect on Ptafr mRNA level in liver of diet-induced obese C57BL/6 mouse model harboring AMPKalpha LS-/- at 200 mg/kg, po for 4 weeks by GO analysis. Format: functional, organism-based.
In data set [13] the test system is Mus musculus. Kind of data set: Effect on Mvd mRNA level in liver of diet-induced obese C57BL/6 mouse model harboring AMPKalpha LS-/- at 200 mg/kg, po for 4 weeks by GO analysis. Format: functional, organism-based.
Data set [14] concerns Mus musculus. Kind of data set: Effect on Pparg mRNA level in liver of diet-induced obese C57BL/6 mouse model harboring AMPKalpha LS-/- at 200 mg/kg, po for 4 weeks by GO analysis. The format is functional, organism-based.
For data set [15], the system named is Mus musculus. Kind of data set: Effect on Aacas mRNA level in liver of diet-induced obese C57BL/6 mouse model harboring AMPKalpha LS-/- at 200 mg/kg, po for 4 weeks by GO analysis. Format: functional, organism-based.
For data set [16], the system named is Mus musculus. Kind of data set: Effect on Mogat1 mRNA level in liver of diet-induced obese C57BL/6 mouse model harboring AMPKalpha LS-/- at 200 mg/kg, po for 4 weeks by GO analysis. Format: functional, organism-based.
Data set [17] concerns Mus musculus. Kind of data set: Effect on Gadd45b mRNA level in liver of diet-induced obese C57BL/6 mouse model harboring AMPKalpha LS-/- at 200 mg/kg, po for 4 weeks by GO analysis. The format is functional, organism-based.
Data set [18] is described as follows: AUC (0 to t) in female Rhesus monkey at 70 mg/kg, po or 7 mg/kg, iv measured for 36 hrs by LC-tandem MS analysis. Conditions: in vivo. The format is ADME, organism-based, Macaca mulatta.
A short description of data set [19]: Tmax in female Rhesus monkey at 70 mg/kg, po or 7 mg/kg, iv measured for 36 hrs by LC-tandem MS analysis. The format is ADME, organism-based, Macaca mulatta. Conditions: in vivo.
The nature of data set [20]: Oral bioavailability in female Rhesus monkey at 70 mg/kg measured for 36 hrs by LC-tandem MS analysis. Format: ADME, organism-based, Macaca mulatta. Conditions: in vivo.
Data set [21] can be described thus: AUC (0 to t) in male Rhesus monkey at 70 mg/kg, po or 7 mg/kg, iv measured for 36 hrs by LC-tandem MS analysis. Conditions: in vivo. Format: ADME, organism-based, Macaca mulatta.
Data set [22] can be described thus: Apparent permeability across apical to basal side in human Caco-2 cells at 2 uM incubated for 2 hrs by LC-MS/MS analysis. Format: ADME, cell-based.
Data set [23] in a line: Stability in human Caco-2 cells assessed as compound remaining at 10 ug/ml measured after 3 hrs by LC-MS/MS analysis. Format: ADME, cell-based. Conditions: at 10 µg/mL, read-out: Stability.
Data set [24] is described as follows: Acute toxicity in golden hamster assessed as intense toxic response at 20 g/Kg, po measured for 14 days. Format: organism-based, Mesocricetus auratus. Conditions: in vivo, 20000 mg/kg, 336 h, time 14 day.

As for `CC(=O)OC[C@H]1O[C@@H](n2cnc3c(Nc4cccc(O)c4)ncnc32)[C@H](OC(C)=O)[C@@H]1OC(C)=O`, the Activity in [1] is 36.2%; in data set [2], 42%; in data set [5], 4.83%; in data set [6], 23.69%; in data set [7] it was 11.93%; in [24], “Non-Toxic”. Further, the outcome in data set [3], in data set [8], in data set [9], in [10] and in data set [11] was Active. The outcome in data set [4], in data set [12], in data set [13], in data set [14], in data set [15] and in [16] was inactive. The outcome in data set [17] was inactive. Besides, the AUC(0-t) at 36 h in data set [18] amounted to 102 ng·h/mL; in [21], 109 ng·h/mL. For the same compound, the Tmax in data set [19] amounted to 2.25 h. In data set [20], this compound gave a bioavailability of 3.75%. The apical-to-basolateral permeability (Papp A→B) at 2 h, 2 µM in [22] amounted to 8.6 ×10⁻⁶ cm/s. Further, the remaining at 3 h, 10 ug/ml in data set [23] was found to be 52%.
